In brackets after ≈: the same amount, converted by molar mass.
Legend:
Experiment in all cases: ≥ marks a high value that may be exact or a test limit, other limits are often not marked, values filed in µg/mL are converted to µM
Pseudomonas aeruginosa = system: Pseudomonas aeruginosa
Salmonella typhimurium = system: Salmonella typhimurium
[1] = system: Enterobacter cloacae ATCC 11775
[2] = system: Escherichia coli 363 ATCC 11775
Candida albicans = system: Candida albicans
[3] = system: Bacillus megaterium ATCC 9885
Klebsiella pneumoniae = system: Klebsiella pneumoniae
Listeria monocytogenes = system: Listeria monocytogenes
Streptococcus pneumoniae = system: Streptococcus pneumoniae
[4] = system: Staphylococcus aureus ATCC 25923
Clostridium perfringens = system: Clostridium perfringens
[5] = system: Staphylococcus haemolyticus
Saccharomyces cerevisiae = system: Saccharomyces cerevisiae
[6] = system: Salmonella enterica subsp. enterica serovar Enteritidis
Escherichia coli B = system: Escherichia coli B
Vibrio cholerae = system: Vibrio cholerae
Neisseria meningitidis = system: Neisseria meningitidis
[7] = system: Salmonella typhimurium CIP 6062
Streptococcus mutans = system: Streptococcus mutans
[8] = system: Streptococcus gordonii Challis DL1
[9] = system: Veillonella atypica PK1910
[10] = system: Lacticaseibacillus casei ATCC 4646
[11] = system: Streptococcus sanguinis NY101
[12] = system: Streptococcus mitis ATCC 903
[13] = system: Arthrobacter globiformis VKM Ac-1112
[14] = system: Bacillus subtilis VKM B-501
Escherichia coli MH1 = system: Escherichia coli MH1
[15] = system: Pseudomonas aeruginosa PAO1
[16] = system: Escherichia coli DH5alpha
[17] = system: Saccharomyces cerevisiae Y190
Escherichia coli O111 = system: Escherichia coli O111
[18] = system: Escherichia coli ATCC 25726
[19] = system: Acinetobacter baumannii NM8
[20] = system: Acinetobacter baumannii NM124
[21] = system: Pseudomonas aeruginosa ATCC 27853
[22] = system: Pseudomonas aeruginosa Pa4216
[23] = system: Acinetobacter baumannii NM35
[24] = system: Pseudomonas aeruginosa Pa1409
[25] = system: Acinetobacter baumannii Ab5753
[26] = system: Candida albicans ATCC 90028
[27] = system: Klebsiella pneumoniae ATCC 700603
[28] = system: Acinetobacter baumannii Ab1408
[29] = system: Acinetobacter baumannii Ab5755
[30] = system: Staphylococcus aureus Sa1390
Escherichia coli Ec513 = system: Escherichia coli Ec513

| Compound | MIC (Pseudomonas aeruginosa) [µM] | MIC [1] [µM] | MIC [2] [µM] | MIC (Candida albicans) [µM] | MIC [3] [µM] | MIC (Klebsiella pneumoniae) [µM] | MIC (Listeria monocytogenes) [µM] | MIC (Streptococcus pneumoniae) [µM] | MIC [4] [µM] | MIC (Clostridium perfringens) [µM] | MIC [5] [µM] | MIC (Saccharomyces cerevisiae) [µM] | MIC [6] [µM] | MIC (Vibrio cholerae) [µM] | MIC (Neisseria meningitidis) [µM] | MIC [7] [µM] | other results |
| --- | --- | --- | --- | --- | --- | --- | --- | --- | --- | --- | --- | --- | --- | --- | --- | --- | --- |
| CC(C)C[C@H](NC(=O)[C@H](CC(C)C)NC(=O)[C@H](CCCCN)NC(=O)CNC(=O)[C@H](C)NC(=O)[C@@H](NC(=O)[C@H](CCCCN)NC(=O)[C@H](CC(C)C)NC(=O)[C@H](CC(C)C)NC(=O)[C@H](CC(=O)O)NC(=O)[C@@H](NC(=O)[C@@H](NC(=O)[C@@H](NC(=O)CN)C(C)C)C(C)C)[C@@H](C)O)[C@@H](C)O)C(=O)NCC(=O)N[C@@H](CC(N)=O)C(=O)N[C@@H](CC(C)C)C(=O)N[C@@H](Cc1ccccc1)C(=O)NCC(=O)N[C@@H](CO)C(=O)N[C@@H](CC(C)C)C(=O)N[C@@H](CO)C(=O)NCC(N)=O [GVVTDLLKTAGKLLGNLFGSLSG] | 3.1 (≈ 7.01 µg/mL) | 12.5 (≈ 28.2 µg/mL) | 6.25 (≈ 14.1 µg/mL) | 50 (≈ 113 µg/mL) | ≥ 50.2 | 6.25 (≈ 14.1 µg/mL) | ≥ 50 | 12.5 (≈ 28.2 µg/mL) | 6.25 (≈ 14.1 µg/mL) | ≥ 100 | ≥ 50 | ≥ 100 | 3.1 (≈ 7.01 µg/mL) | 25 (≈ 56.5 µg/mL) | ≥ 50 | 25.2 (≈ 57.1 µg/mL) | MIC (Salmonella typhimurium): 6.25 µM (≈ 14.1 µg/mL); MIC (Escherichia coli B): 12.5 µM (≈ 28.2 µg/mL) |
| CC(C)C[C@H](NC(=O)[C@H](Cc1ccccc1)NC(=O)[C@H](CCCN=C(N)N)NC(=O)[C@H](CCCCN)NC(=O)[C@@H](N)CC(C)C)C(=O)N[C@@H](CCCCN)C(=O)N[C@@H](Cc1c[nH]c2ccccc12)C(=O)N[C@@H](Cc1ccccc1)C(=O)N[C@@H](CCCCN)C(=O)N[C@@H](CCCN=C(N)N)C(=O)N[C@@H](Cc1ccccc1)C(=O)NCC(=O)NCC(=O)NCC(=O)N[C@@H](CCCN=C(N)N)C(=O)N[C@@H](Cc1c[nH]c2ccccc12)C(=O)N[C@@H](CCCN=C(N)N)C(=O)N[C@@H](Cc1c[nH]c2ccccc12)C(=O)N[C@@H](CCCN=C(N)N)C(=O)N[C@@H](Cc1c[nH]c2ccccc12)C(=O)N[C@@H](Cc1ccccc1)C(N)=O [LKRFLKWFKRFGGGRWRWRWF] |  |  |  |  |  |  |  |  |  |  |  |  |  |  |  |  | MIC (Streptococcus mutans): 2.74 µM (≈ 8 µg/mL); MIC [8]: 22 µM (≈ 64 µg/mL); MIC [9]: 2.74 µM (≈ 8 µg/mL); MIC [10]: 5.49 µM (≈ 16 µg/mL); MIC [11]: 5.49 µM (≈ 16 µg/mL); MIC [12]: 22 µM (≈ 64 µg/mL) |
| CSCC[C@H](NC(=O)[C@H](CO)NC(=O)[C@H](C)NC(=O)[C@H](Cc1c[nH]c2ccccc12)NC(=O)[C@@H](N)CO)C(=O)N[C@@H](C)C(=O)N[C@@H](CCCCN)C(=O)N[C@@H](CCCCN)C(=O)N[C@@H](CC(C)C)C(=O)N[C@@H](CCCCN)C(=O)N[C@@H](CCC(=O)O)C(=O)N[C@@H](Cc1ccc(O)cc1)C(=O)N[C@@H](CCSC)C(=O)N[C@@H](CCC(=O)O)C(=O)N[C@@H](CCCCN)C(=O)N[C@@H](CC(C)C)C(=O)N[C@@H](CCCCN)C(=O)N[C@@H](CCC(N)=O)C(=O)N[C@@H](CCCN=C(N)N)C(=O)N[C@@H](C)C(N)=O [SWASMAKKLKEYMEKLKQRA] |  |  |  |  |  |  |  |  |  |  |  |  |  |  |  |  | MIC [13]: 0.7 µM (≈ 1.7 µg/mL); MIC [14]: 2.9 µM (≈ 7.04 µg/mL); MIC (Escherichia coli MH1): 28 µM (≈ 67.9 µg/mL); MIC [15]: > 45 µM; MIC [16]: 23 µM (≈ 55.8 µg/mL); MIC [17]: 23 µM (≈ 55.8 µg/mL) |
| CC[C@H](C)[C@H](NC(=O)[C@H](CO)NC(=O)[C@@H]1CCCN1C(=O)[C@H](C)NC(=O)CNC(=O)[C@H](CC(C)C)NC(=O)[C@H](CCCCN)NC(=O)[C@H](CCCN=C(N)N)NC(=O)[C@H](CCSC)NC(=O)[C@H](CCCN=C(N)N)NC(=O)[C@H](CCCN=C(N)N)NC(=O)[C@H](CCC(N)=O)NC(=O)[C@H](Cc1c[nH]c2ccccc12)NC(=O)[C@H](CCC(N)=O)NC(=O)[C@@H](N)Cc1ccc(O)cc1)C(=O)N[C@H](C(=O)O)[C@@H](C)O [YQWQRRMRKLGAPSIT] |  |  |  |  |  |  |  |  |  |  |  |  |  |  |  |  | MIC (Escherichia coli O111): ≥ 100 µM |
| CC[C@H](C)[C@H](NC(=O)CNC(=O)[C@H](CCCCN)NC(=O)[C@@H](NC(=O)[C@H](CC(C)C)NC(=O)[C@H](CO)NC(=O)CNC(=O)[C@H](CC(C)C)NC(=O)CNC(=O)[C@H](C)NC(=O)[C@H](CCCCN)NC(=O)[C@H](Cc1ccccc1)NC(=O)[C@@H](NC(=O)[C@H](CCCCN)NC(=O)[C@H](CCCCN)NC(=O)[C@H](CC(C)C)NC(=O)CN)[C@@H](C)CC)C(C)C)C(=O)N[C@@H](C)C(=O)N[C@@H](C)C(=O)N[C@@H](Cc1cnc[nH]1)C(=O)N[C@H](C(=O)N[C@@H](C)C(=O)N[C@@H](CO)C(N)=O)C(C)C [GLKKIFKAGLGSLVKGIAAHVAS] |  |  |  |  |  |  |  |  | 250 (≈ 566 µg/mL) |  |  |  |  |  |  |  | MIC [18]: 5 µM (≈ 11.3 µg/mL); MIC [19]: 2.5 µM (≈ 5.66 µg/mL); MIC [20]: 1.25 µM (≈ 2.83 µg/mL); MIC [21]: 6 µM (≈ 13.6 µg/mL); MIC [22]: 28.2 µM (≈ 64 µg/mL); MIC [23]: 5 µM (≈ 11.3 µg/mL); MIC [24]: ≥ 56.5 µM; MIC [25]: 28.2 µM (≈ 64 µg/mL); MIC [26]: 20 µM (≈ 45.3 µg/mL); MIC [27]: 12.5 µM (≈ 28.3 µg/mL); MIC [28]: 28.2 µM (≈ 64 µg/mL); MIC [29]: 3.53 µM (≈ 8 µg/mL); MIC [30]: ≥ 56.5 µM; MIC (Escherichia coli Ec513): 14.1 µM (≈ 32 µg/mL) |
| CC[C@H](C)[C@H](NC(=O)[C@H](CC(C)C)NC(=O)[C@H](CO)NC(=O)[C@@H](NC(=O)[C@@H](NC(=O)[C@H](CC(C)C)NC(=O)CN)C(C)C)[C@@H](C)O)C(=O)N[C@@H](CCCCN)C(=O)NCC(=O)N[C@@H](C)C(=O)NCC(=O)N[C@@H](CCCCN)C(=O)N[C@@H](CC(C)C)C(=O)N[C@@H](CC(C)C)C(=O)NCC(=O)NCC(=O)N[C@@H](CC(C)C)C(=O)N[C@@H](Cc1ccccc1)C(=O)NCC(=O)N[C@@H](CO)C(=O)N[C@H](C(=O)N[C@H](C(=O)NCC(N)=O)[C@@H](C)O)C(C)C [GLVTSLIKGAGKLLGGLFGSVTG] | 1.5 (≈ 3.22 µg/mL) | 12.6 (≈ 26.9 µg/mL) | 6.25 (≈ 13.4 µg/mL) | 12.5 (≈ 26.8 µg/mL) | 3.15 (≈ 6.76 µg/mL) | 3.1 (≈ 6.65 µg/mL) | 12.5 (≈ 26.8 µg/mL) | 3.1 (≈ 6.65 µg/mL) | 6.25 (≈ 13.4 µg/mL) | 25 (≈ 53.6 µg/mL) | 6.25 (≈ 13.4 µg/mL) | 12.5 (≈ 26.8 µg/mL) | 1.5 (≈ 3.22 µg/mL) | 6.25 (≈ 13.4 µg/mL) | 25 (≈ 53.6 µg/mL) | 12.6 (≈ 26.9 µg/mL) |  |
